{"source": "patent US6146628A", "about": "“Biotherapeutic agents comprising recombinant PAP and PAP mutants” (priority 1995, dated 2000)", "key": {"[1]": {"test_system": "clinical HIV-1 strains (AT-101, AT-328, AT-332)", "type": "in vivo, Hu-PBL-SCID mice", "from_the_text": "Hu-PBL-SCID mice were generated by reconstituting SCID mice by intraperitoneal injection of 10×10^6 peripheral blood mononuclear cells from a single EBV-seronegative volunteer donor. Two weeks after inoculation of cells, mice were challenged by intraperitoneal injection of 1.47.-7×10^4 median tissue culture infectious doses (TCID50) of cell free virus. Three different clinical HIV-1 strains (AT-101, AT-328, AT-332) were used. […] SCID mice were infected with HIV-1 isolates in a Biosafety Level 3 containment facility and all manipulations were performed in a biosafety cabinet. Non-toxic doses of anti-CD4-PAP (20% -50% of LD10) were administered intraperitoneally by injecting half of the total dose as a bolus and delivering the remainder i.p. over 2 weeks using Alzet micro-osmotic pumps. […] Two weeks after infection with HIV-1, mice were electively killed and fresh peritoneal lavage cells as well as spleen cells were isolated, cocultured with phytohemagglutinin(PHA)-stimulated human peripheral blood mononuclear cells from an HIV-1 antibody negative donor, and culture supernatants were tested every 3-4 days for a maximum of 28 days for the presence of HIV-1 antigen with a commercially available enzyme immunoassay (Abbott Laboratories, North Chicago, Ill.) that detects primarily the core p24 antigen of HIV-1, as previously described by Goudsmit et al. in J. Infectious Diseases, 155, 558 (1987). In addition to this culture method, we also isolated the DNA from the peritoneal lavage cells as well as splenocytes for detection of HIV-1 DNA by PCR amplification of a 115 b.p. sequence in the gag region of the HIV-1 genome using two 29-base oligonucleotide primers, SK38 and SK39, that flank the region to be amplified. […] DNA samples were also examined for the presence of human DNA by PCR amplification of a 110-bp fragment from the first exon of the human β-globin gene using two 20-base oligonucleotide primers, PCO3 and PCO4, that flank the region to be amplified, as previously described in detail by Chelstrom et al. Blood, 84, 20 (1994). […]"}, "in vitro": {"assay": "in vitro", "type": "cell-based", "settings": "cells exposed to zidovudine; 22 assays; 90.9% for cells not exposed; read-out: cell viability", "source_text": "(§1) A total of 22 clinical HIV-1 isolates were studied, including 8 isolates from four seropositive asymptomatic individuals, 6 isolates from three patients with the AIDS-related complex, and 8 isolates from four patients with AIDS (two pairs of zidovudine-resistant and zidovudine-susceptible reference isolates were also included in this group). Erice et al., Antimicrob. Ag. Chemother., 37, 835 (1993). Fifteen isolates were from untreated individuals, and seven isolates were obtained after 24 to 104 weeks of treatment with zidovudine, alone or alternating with zalcitabine. […] The mean αCD4-PAP IC50 s in this group were 11×10^-3 nM (range, 2.5×10^-3 to 25×10^-3 nM) for isolates from zidovudine-untreated individuals and 9×10^-3 nM for the isolate obtained after 48 weeks of zidovudine therapy. […] The mean αCD4-PAP values in this group were 137×10^-3 nM (range, 39×10^-3 to 212×10^-3 nM) for isolates from untreated individuals and 19×10^-3 nM (range, 2×10^-3 to 42×10^-3 nM) for isolates from treated patients. […] The mean αCD4-PAP values were 43×10^-3 nM for the 17 isolates susceptible to zidovudine and 19×10^-3 nM for the 5 isolates that were resistant to zidovudine. All of the HIV-1 isolates studied had IC50 s greater than 0.5 nM for unconjugated PAP, the αCD19-PAP immunoconjugate, and monoclonal antibody αCD4. […]"}, "clinical HIV-1 isolates": {"test_system": "clinical HIV-1 isolates", "assay": "In vitro susceptibility of clinical HIV-1 isolates to zidovudine (IC50)", "type": "cell-based", "source_text": "as §1, with “αCD4. In 18 αCD4-PAP experiments, cell viability ranged from 97.5% (for cells not exposed to the immunoconjugate)to 87.2% (for cells exposed to 5 nM αCD4-PAP). Cell viabilities in 22 zidovudine susceptible assays ranged from 90.9% (cells not exposed to zidovudine) to 90.75% (cells exposed to […] zidovudine).” for “αCD4.”\nThe in vitro susceptibility of clinical HIV-1 isolates to the PAP, PAP mutants, and anti-CD4 PAP immunoconjugates will be measured and compared using an RT inhibition assay, as described by Schwartz et al., cited supra. In brief, 5×10^6 PHA-stimulated seronegative donor peripheral blood mononuclear cells will be infected with HIV-1 by incubation in 1 mL of a stock virus preparation for 3 h at 37° C./5% CO2. After infection, cells will be transferred to 96-well tissue culture plates (40 μL/well in triplicate wells) containing different concentrations of PAP or αCD4 PAP diluted in RPMI 1640 supplemented with 20% fetal calf serum, 5% interleukin 2 (Cellular Products), 160 U/mL penicillin, and 160 μg/mL streptomycin. αCD4 PAP treatment will continue for 5 days to mimic the FDA-approved clinical protocol of the ongoing phase II PAP immunoconjugate trials for treatment of B-lineage lymphoid malignancies (BB-IND #3864). At the end of the incubation period, culture supernatants will be removed and assayed for RT activity using the method of Schwartz and colleagues. Schwartz et al., cited supra. IC50 values (concentration of drug needed to reduce RT activity by 50%) will be calculated from the RT activities of untreated versus treated samples using the SAS Regression Analysis Program (SAS Institute, Cary, N.C.). ZDV resistance will be defined as an ZDV-IC50value of greater than 1 μM. Standard statistical methods will be used including Student's t-tests to compare the αCD4 PAP sensitivity of ZDV-resistant and ZDV-sensitive HIV-1 isolates. All computations will be performed using an updated statistics program for the Macintosh (Statworks Statistics Program, Cricket Software, Philadelphia, Pa.)."}, "[2]": {"settings": "ZDV in the water at 1 mg/mL, of the remaining 7 of 10 mice"}}, "note": "Where two headings read alike, the source gives them in different places.", "data": [{"smiles": "Cc1cn([C@H]2C[C@H](N=[N+]=[N-])[C@@H](CO)O2)c(=O)[nH]c1=O", "note": "[zidovudine, 3'-azido-3'-deoxythymidine]", "values": [{"measurement": "HIV-1 negative mice", "setting": "[1]; ZDV in the water at 1 mg/mL (average 200 mg/kg/day), two weeks after infection, culture and PCR", "result": "3 of 10"}, {"measurement": "mice culture-negative but PCR-positive", "setting": "[1]; [2]", "result": 3}, {"measurement": "mice culture-positive and PCR positive", "setting": "[1]; [2]", "result": 4}, {"measurement": "viability", "setting": "in vitro", "result": 90.8, "unit": "%"}, {"measurement": "IC50", "setting": "clinical HIV-1 isolates; Human immunodeficiency virus 1, one resistant isolate, IC50 could not be calculated", "result": "> 4", "unit": "µM"}, {"measurement": "IC50", "setting": "clinical HIV-1 isolates; Human immunodeficiency virus 1, read-out: mean IC50, overall, 5 isolates resistant to zidovudine", "result": 3.72, "unit": "µM"}, {"measurement": "IC50", "setting": "clinical HIV-1 isolates; Human immunodeficiency virus 1, read-out: mean IC50, overall, 17 isolates susceptible to zidovudine", "result": 0.117, "unit": "µM"}, {"measurement": "IC50", "setting": "clinical HIV-1 isolates; Human immunodeficiency virus 1, read-out: mean zidovudine IC50, AIDS-related complex, four zidovudine susceptible isolates", "result": 0.106, "unit": "µM"}, {"measurement": "IC50", "setting": "clinical HIV-1 isolates; Human immunodeficiency virus 1, read-out: mean zidovudine IC50, isolates from seropositive asymptomatic, zidovudine-untreated patients", "result": 0.15, "unit": "µM"}, {"measurement": "IC50", "setting": "clinical HIV-1 isolates; Human immunodeficiency virus 1, read-out: mean zidovudine IC50, patients with AIDS, five zidovudine susceptible strains", "result": 0.105, "unit": "µM"}, {"measurement": "IC50", "setting": "clinical HIV-1 isolates; Human immunodeficiency virus 1, read-out: mean zidovudine IC50, strains from zidovudine-treated patients (7 isolates, 24 to 104 weeks of treatment)", "result": 2.5, "unit": "µM"}, {"measurement": "IC50", "setting": "clinical HIV-1 isolates; Human immunodeficiency virus 1, read-out: mean zidovudine IC50, strains from zidovudine-untreated individuals (15 isolates)", "result": 0.126, "unit": "µM"}, {"measurement": "IC50", "setting": "clinical HIV-1 isolates; Human immunodeficiency virus 1, read-out: zidovudine IC50, one isolate from a seropositive asymptomatic individual after 48 weeks of zidovudine therapy", "result": 0.014, "unit": "µM"}, {"measurement": "IC50", "setting": "clinical HIV-1 isolates; Human immunodeficiency virus 1, read-out: zidovudine IC50 range, AIDS-related complex, four zidovudine susceptible isolates", "result": "0.024 to 0.15", "unit": "µM"}, {"measurement": "IC50", "setting": "clinical HIV-1 isolates; Human immunodeficiency virus 1, read-out: zidovudine IC50 range, isolates from seropositive asymptomatic, zidovudine-untreated patients", "result": "0.001 to 0.607", "unit": "µM"}, {"measurement": "IC50", "setting": "clinical HIV-1 isolates; Human immunodeficiency virus 1, read-out: zidovudine IC50 range, patients with AIDS, five zidovudine susceptible strains", "result": "0.044 to 0.166", "unit": "µM"}, {"measurement": "IC50", "setting": "clinical HIV-1 isolates; Human immunodeficiency virus 1, read-out: zidovudine IC50 range, strains from zidovudine-treated patients (7 isolates)", "result": "0.014 to 6.5", "unit": "µM"}, {"measurement": "IC50", "setting": "clinical HIV-1 isolates; Human immunodeficiency virus 1, read-out: zidovudine IC50 range, strains from zidovudine-untreated individuals (15 isolates)", "result": "0.001 to 0.607", "unit": "µM"}, {"measurement": "IC50", "setting": "clinical HIV-1 isolates; Human immunodeficiency virus 1, read-out: zidovudine IC50s, AIDS-related complex, two resistant isolates obtained after 52 weeks of therapy", "result": "1.71 to 2.14", "unit": "µM"}, {"measurement": "susceptibility to zidovudine", "setting": "clinical HIV-1 isolates; patients with AIDS, three isolates after 24 to 104 weeks of zidovudine, alone or alternating with zalcitabine", "result": "highly resistant to zidovudine"}]}]}
